Values quoted from earlier work in patent publication US5667811A, “Na-K-ATPase inhibiting natriuretic substances” (The Regents of the University of California, priority 1992, dated 1997).
No end group written: not given here.

What was measured:
active transport = details: literature
Na-K-ATPase = details: literature

## ANF: atrial natriuretic factor, synthesized or stored in cardiac atria (SLRRSSCFGGRMDRIGAQSGLGCNSFRY; ends and bridges not checked; cysteine pairing not given here; UniProt P01160 124-151, looked up)
Active transport
  inhibition of active transport: does not inhibit active transport

## lysophosphatidyl choline
Na-K-ATPase
  Na-K-ATPase inhibition: potent Na-K-ATPase inhibitors
